Test results taken from US11000033B2, “Ketone or oxime compound, and herbicide” (NISSAN CHEMICAL CORPORATION, priority 2014, dated 2021).

Assays:
Assay type in all cases: in vivo
corn [1] = experiment: Test Example 4: effect on crop by soil treatment (symbol c); conditions: application herbicide amount 320 g/ha
Summary of the method: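 Diluvial soil (sterilized) in boxes; seeds placed spot-wise alongside weed species; ~1.5 cm covering soil. Greenhouse, 25–30° C.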

Chenopodium album [2] = experiment: Test Example 4: herbicidal effect by soil treatment (symbol O); conditions: application herbicide amount 320 g/ha
Summary of the method: (§1)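 Seeds were sown in sterilized diluvial soil, covered with about 1.5 cm of soil, and the soil surface was sprayed with a water-diluted emulsion of the compound at a predetermined rate. Plants grew in a greenhouse at 25° C. to 30° C.; effects were scored visually 3 weeks after application.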

soybean = experiment: Test Example 5: effect on crop by foliage application, plastic box (symbol d); conditions: 320 g/ha, 3 weeks after application
Summary of the method: (§2)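 Crop and weed seeds sown in spots in sterilized diluvial soil in plastic boxes and covered with about 1.5 cm soil. Plants raised in a greenhouse at 25° C. to 30° C. for foliar application.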

Amaranthus retroflexus = experiment: Test Example 5: herbicidal effect by foliage application, plastic box (symbol N); conditions: 320 g/ha, 3 weeks after application
Summary of the method: (§3)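 Leaf-applied emulsion, water-diluted to a preset herbicide dose, on two-week-old seedlings raised in a 25° C. to 30° C. greenhouse; injury rated at 3 weeks using earlier criteria.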

Alopecurus myosuroides [3] = experiment: Test Example 4: herbicidal effect by soil treatment (symbol J); conditions: application herbicide amount 320 g/ha
Summary of the method: as §1

Abutilon theophrasti = experiment: Test Example 4: herbicidal effect by soil treatment (symbol M); conditions: application herbicide amount 320 g/ha
Summary of the method: as §1

corn [4] = experiment: Test Example 5: effect on crop by foliage application, plastic box (symbol c); conditions: 320 g/ha, 3 weeks after application
Summary of the method: as §2

Alopecurus myosuroides [5] = experiment: Test Example 5: herbicidal effect by foliage application, plastic box (symbol J); conditions: 320 g/ha, 3 weeks after application
Summary of the method: as §3

Veronica persica = experiment: Test Example 5: herbicidal effect by foliage application, plastic box (symbol R); conditions: 320 g/ha, 3 weeks after application
Summary of the method: as §3

[6] = system: Echinochloa crus-galli var. crus-galli; experiment: Test Example 5: herbicidal effect by foliage application, plastic box (symbol H); conditions: 320 g/ha, 3 weeks after application
Summary of the method: as §3

transplanted rice plant = experiment: Test Example 1: effect on crop, application before weed generation in submerged conditions (symbol a); conditions: application herbicide amount 320 g/ha
Summary of the method: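 Rice at 2.5 leaf stage transplanted into submerged soil (4 cm depth) sown with three weed species; herbicide applied before weed emergence.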

[7] = system: Echinochloa crus-galli var. crus-galli; experiment: Test Example 3: herbicidal effect by foliage application, Wagner pot (symbol H); conditions: application herbicide amount 320 g/ha
Summary of the method: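 Plants sown in submerged alluvial soil (water depth 0.1–0.5 cm) in a 25–30 °C greenhouse and grown 14 days. An emulsion of the compound diluted in water to a set herbicide amount was sprayed uniformly on foliage. Effect on each plant scored 3 weeks after application.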

Chenopodium album [8] = experiment: Test Example 5: herbicidal effect by foliage application, plastic box (symbol O); conditions: 320 g/ha, 3 weeks after application
Summary of the method: as §3

Lolium multiflorum Lam. = experiment: Test Example 5: herbicidal effect by foliage application, plastic box (symbol K); conditions: 320 g/ha, 3 weeks after application
Summary of the method: as §3

Galium spurium = experiment: Test Example 4: herbicidal effect by soil treatment (symbol Q); conditions: application herbicide amount 320 g/ha
Summary of the method: as §1

Apera spica-venti = experiment: Test Example 5: herbicidal effect by foliage application, plastic box (symbol L); conditions: 320 g/ha, 3 weeks after application
Summary of the method: as §3

Stellaria media = experiment: Test Example 4: herbicidal effect by soil treatment (symbol P); conditions: application herbicide amount 320 g/ha
Summary of the method: as §1

## CON=C(C)CC1CC(O)=C(c2c(C)cc(-c3ccc(Cl)cc3)cc2OC)C1=O (centres unmarked) [6-077, 2-(4′-chloro-3-methoxy-5-methyl-[1,1′-biphenyl]-4-yl)-3-hydroxy-5-{2-(methoxyimino)propyl}cyclopent-2-enone]
Corn [1]
  c: corn, effect on crop grade: 0 (Herbicidal ratio of 5% or lower (almost no effect))
Chenopodium album [2]
  O: Chenopodium album, herbicidal effect grade: 4 (Herbicidal ratio of 70% or higher and lower than 90%)
soybean
  d: soybean, effect on crop (criteria of Test Example 1): 2 (Herbicidal ratio of 20% or higher and lower than 40%)
Amaranthus retroflexus
  N: Amaranthus retroflexus, herbicidal effect (criteria of Test Example 1): 1 (Herbicidal ratio of 5% or higher and lower than 20%)
Alopecurus myosuroides [3]
  J: Alopecurus myosuroides, herbicidal effect grade: 5 (Herbicidal ratio of 90% or more (almost completely withered))
Abutilon theophrasti
  M: Abutilon theophrasti, herbicidal effect grade: 5 (Herbicidal ratio of 90% or more (almost completely withered))
Corn [4]
  c: corn, effect on crop (criteria of Test Example 1): 5 (Herbicidal ratio of 90% or more (almost completely withered))
Alopecurus myosuroides [5]
  J: Alopecurus myosuroides, herbicidal effect (criteria of Test Example 1): 5 (Herbicidal ratio of 90% or more (almost completely withered))
Veronica persica
  R: Veronica persica, herbicidal effect (criteria of Test Example 1): 4 (Herbicidal ratio of 70% or higher and lower than 90%)
[6]
  H: Echinochloa crus-galli var. crus-galli, herbicidal effect (criteria of Test Example 1): 5 (Herbicidal ratio of 90% or more (almost completely withered))
Transplanted rice plant
  Effect grade on crop, a: transplanted rice plant: 5 (Herbicidal ratio of 90% or more (almost completely withered))
[7]
  herbicidal effect on H (Echinochloa crus-galli var. crus-galli), grade 0-5: 5 (Herbicidal ratio of 90% or more (almost completely withered))
Chenopodium album [8]
  O: Chenopodium album, herbicidal effect (criteria of Test Example 1): 4 (Herbicidal ratio of 70% or higher and lower than 90%)
Lolium multiflorum Lam.
  K: Lolium multiflorum Lam., herbicidal effect (criteria of Test Example 1): 5 (Herbicidal ratio of 90% or more (almost completely withered))
Galium spurium
  Q: Galium spurium, herbicidal effect grade: 4 (Herbicidal ratio of 70% or higher and lower than 90%)
Apera spica-venti
  L: Apera spica-venti, herbicidal effect (criteria of Test Example 1): 5 (Herbicidal ratio of 90% or more (almost completely withered))
Stellaria media
  P: Stellaria media, herbicidal effect grade: 3 (Herbicidal ratio of 40% or higher and lower than 70%)

## CON=C(C)CC1CC(OC(=O)CCCC(C)=O)=C(c2c(C)cc(-c3ccc(Cl)cc3)cc2C)C1=O (centres unmarked) [6-080]
Corn [1]
  c: corn, effect on crop grade: 0 (Herbicidal ratio of 5% or lower (almost no effect))
Chenopodium album [2]
  O: Chenopodium album, herbicidal effect grade: 0 (Herbicidal ratio of 5% or lower (almost no effect))
soybean
  d: soybean, effect on crop (criteria of Test Example 1): 1 (Herbicidal ratio of 5% or higher and lower than 20%)
Amaranthus retroflexus
  N: Amaranthus retroflexus, herbicidal effect (criteria of Test Example 1): 0 (Herbicidal ratio of 5% or lower (almost no effect))
Alopecurus myosuroides [3]
  J: Alopecurus myosuroides, herbicidal effect grade: 5 (Herbicidal ratio of 90% or more (almost completely withered))
Abutilon theophrasti
  M: Abutilon theophrasti, herbicidal effect grade: 0 (Herbicidal ratio of 5% or lower (almost no effect))
Corn [4]
  c: corn, effect on crop (criteria of Test Example 1): 5 (Herbicidal ratio of 90% or more (almost completely withered))
Alopecurus myosuroides [5]
  J: Alopecurus myosuroides, herbicidal effect (criteria of Test Example 1): 5 (Herbicidal ratio of 90% or more (almost completely withered))
Veronica persica
  R: Veronica persica, herbicidal effect (criteria of Test Example 1): 4 (Herbicidal ratio of 70% or higher and lower than 90%)
[6]
  H: Echinochloa crus-galli var. crus-galli, herbicidal effect (criteria of Test Example 1): 5 (Herbicidal ratio of 90% or more (almost completely withered))
Transplanted rice plant
  Effect grade on crop, a: transplanted rice plant: 5 (Herbicidal ratio of 90% or more (almost completely withered))
[7]
  herbicidal effect on H (Echinochloa crus-galli var. crus-galli), grade 0-5: 5 (Herbicidal ratio of 90% or more (almost completely withered))
Chenopodium album [8]
  O: Chenopodium album, herbicidal effect (criteria of Test Example 1): 0 (Herbicidal ratio of 5% or lower (almost no effect))
Lolium multiflorum Lam.
  K: Lolium multiflorum Lam., herbicidal effect (criteria of Test Example 1): 5 (Herbicidal ratio of 90% or more (almost completely withered))
Galium spurium
  Q: Galium spurium, herbicidal effect grade: 0 (Herbicidal ratio of 5% or lower (almost no effect))
Apera spica-venti
  L: Apera spica-venti, herbicidal effect (criteria of Test Example 1): 5 (Herbicidal ratio of 90% or more (almost completely withered))
Stellaria media
  P: Stellaria media, herbicidal effect grade: 0 (Herbicidal ratio of 5% or lower (almost no effect))

## CON=C(C)CC1CC(OCOC(=O)c2ccccc2)=C(c2c(C)cc(-c3ccc(Cl)cc3)cc2C)C1=O (centres unmarked) [6-083]
Corn [1]
  c: corn, effect on crop grade: 0 (Herbicidal ratio of 5% or lower (almost no effect))
Chenopodium album [2]
  O: Chenopodium album, herbicidal effect grade: 0 (Herbicidal ratio of 5% or lower (almost no effect))
soybean
  d: soybean, effect on crop (criteria of Test Example 1): 0 (Herbicidal ratio of 5% or lower (almost no effect))
Amaranthus retroflexus
  N: Amaranthus retroflexus, herbicidal effect (criteria of Test Example 1): 3 (Herbicidal ratio of 40% or higher and lower than 70%)
Alopecurus myosuroides [3]
  J: Alopecurus myosuroides, herbicidal effect grade: 5 (Herbicidal ratio of 90% or more (almost completely withered))
Abutilon theophrasti
  M: Abutilon theophrasti, herbicidal effect grade: 0 (Herbicidal ratio of 5% or lower (almost no effect))
Corn [4]
  c: corn, effect on crop (criteria of Test Example 1): 5 (Herbicidal ratio of 90% or more (almost completely withered))
Alopecurus myosuroides [5]
  J: Alopecurus myosuroides, herbicidal effect (criteria of Test Example 1): 5 (Herbicidal ratio of 90% or more (almost completely withered))
Veronica persica
  R: Veronica persica, herbicidal effect (criteria of Test Example 1): 4 (Herbicidal ratio of 70% or higher and lower than 90%)
[6]
  H: Echinochloa crus-galli var. crus-galli, herbicidal effect (criteria of Test Example 1): 5 (Herbicidal ratio of 90% or more (almost completely withered))
Transplanted rice plant
  Effect grade on crop, a: transplanted rice plant: 5 (Herbicidal ratio of 90% or more (almost completely withered))
[7]
  herbicidal effect on H (Echinochloa crus-galli var. crus-galli), grade 0-5: 5 (Herbicidal ratio of 90% or more (almost completely withered))
Chenopodium album [8]
  O: Chenopodium album, herbicidal effect (criteria of Test Example 1): 5 (Herbicidal ratio of 90% or more (almost completely withered))
Lolium multiflorum Lam.
  K: Lolium multiflorum Lam., herbicidal effect (criteria of Test Example 1): 4 (Herbicidal ratio of 70% or higher and lower than 90%)
Galium spurium
  Q: Galium spurium, herbicidal effect grade: 0 (Herbicidal ratio of 5% or lower (almost no effect))
Apera spica-venti
  L: Apera spica-venti, herbicidal effect (criteria of Test Example 1): 5 (Herbicidal ratio of 90% or more (almost completely withered))
Stellaria media
  P: Stellaria media, herbicidal effect grade: 0 (Herbicidal ratio of 5% or lower (almost no effect))

## CON=C(C)CC1CC(O)=C(c2c(C)cc(-c3ccc(Cl)cc3F)cc2C)C1=O (centres unmarked) [6-084]
Corn [1]
  c: corn, effect on crop grade: 0 (Herbicidal ratio of 5% or lower (almost no effect))
Chenopodium album [2]
  O: Chenopodium album, herbicidal effect grade: 3 (Herbicidal ratio of 40% or higher and lower than 70%)
soybean
  d: soybean, effect on crop (criteria of Test Example 1): 5 (Herbicidal ratio of 90% or more (almost completely withered))
Amaranthus retroflexus
  N: Amaranthus retroflexus, herbicidal effect (criteria of Test Example 1): 3 (Herbicidal ratio of 40% or higher and lower than 70%)
Alopecurus myosuroides [3]
  J: Alopecurus myosuroides, herbicidal effect grade: 5 (Herbicidal ratio of 90% or more (almost completely withered))
Abutilon theophrasti
  M: Abutilon theophrasti, herbicidal effect grade: 0 (Herbicidal ratio of 5% or lower (almost no effect))
Corn [4]
  c: corn, effect on crop (criteria of Test Example 1): 0 (Herbicidal ratio of 5% or lower (almost no effect))
Alopecurus myosuroides [5]
  J: Alopecurus myosuroides, herbicidal effect (criteria of Test Example 1): 5 (Herbicidal ratio of 90% or more (almost completely withered))
Veronica persica
  R: Veronica persica, herbicidal effect (criteria of Test Example 1): 4 (Herbicidal ratio of 70% or higher and lower than 90%)
[6]
  H: Echinochloa crus-galli var. crus-galli, herbicidal effect (criteria of Test Example 1): 5 (Herbicidal ratio of 90% or more (almost completely withered))
Transplanted rice plant
  Effect grade on crop, a: transplanted rice plant: 5 (Herbicidal ratio of 90% or more (almost completely withered))
[7]
  herbicidal effect on H (Echinochloa crus-galli var. crus-galli), grade 0-5: 5 (Herbicidal ratio of 90% or more (almost completely withered))
Chenopodium album [8]
  O: Chenopodium album, herbicidal effect (criteria of Test Example 1): 4 (Herbicidal ratio of 70% or higher and lower than 90%)
Lolium multiflorum Lam.
  K: Lolium multiflorum Lam., herbicidal effect (criteria of Test Example 1): 5 (Herbicidal ratio of 90% or more (almost completely withered))
Galium spurium
  Q: Galium spurium, herbicidal effect grade: 3 (Herbicidal ratio of 40% or higher and lower than 70%)
Apera spica-venti
  L: Apera spica-venti, herbicidal effect (criteria of Test Example 1): 5 (Herbicidal ratio of 90% or more (almost completely withered))
Stellaria media
  P: Stellaria media, herbicidal effect grade: 3 (Herbicidal ratio of 40% or higher and lower than 70%)
